Compound | melting point [°C]
COc1ccccc1S(=O)(=O)OC(Cl)C(=O)c1ccccc1 (stereo not drawn) | 83
N#Cc1cc(C(=O)N=C(N)N)cc(-n2cccc2)c1 | 198 to 200
CC(=O)N(C)c1c(I)c(NC(=O)CCCC(=O)O)c(I)c(C(=O)O)c1I | 189 to 196
CC(=O)OC1CSC(Oc2cccc(-c3cncc(F)c3)c2)C(OC(C)=O)C1OC(C)=O (stereo not drawn) | 135
CCCCCC(CC(=O)OC)c1cc(C=O)c(OC)cc1OC (stereo not drawn) | 110 to 112
Cc1nc2c(N)nc3c(c2n1CCCCS(C)(=O)=O)CCCC3 | 213 to 216
CCS(=O)(=O)c1cc(C(=O)NCC2CCCN2CC2=CCCC2)c(OC)cc1N (stereo not drawn) | 125 to 126
CON=C(C#N)c1ccc(Cl)c(CNC(=O)OC)c1 | 104 to 107
C=Cc1nc(C(=O)OC)c(Cl)c(N)c1F | 68 to 71
COc1cccc(N2Sc3ccccc3CC2=O)c1OCc1ccccc1 | 151 to 153
CN1C(C)(C)CC(OC(=O)NNC(=O)C(=O)NC2CC(C)(C)NC(C)(C)C2)CC1(C)C | 165 to 170
CN(C)C(=O)N(N=Cc1ccc(OC(F)(F)C(F)F)cc1)C(=N)NN=Cc1ccc(OC(F)(F)C(F)F)cc1 | 142 to 144
Cc1[nH]c(-c2ccccc2)c2c1C(c1ccccc1)=NCC(=O)N2 | 310 to 312
O=C(Oc1ccc(O)cc1)c1ccc(O)cc1 | 242 to 245
C(=C\c1nc2ccccc2n1-c1nccs1)/c1ccccc1 | 99 to 99.5
CCc1cc2c(-c3ccccc3OC)c(NC(=O)Nc3cc(C)c(OC(C)=O)c(C)c3)cnc2s1 | 217 to 218
O=C(O)c1cc(-c2ccccc2C(F)(F)F)nc(C(F)(F)F)c1 | 155 to 157
CC(C)(C)C(=O)ON1C(C)(C)CC(OC(=O)c2ccccc2)CC1(C)C | 107 to 110
O=C(NO)c1ccc(C(=O)NOCC2CCc3ccccc3C2)cc1 (stereo not drawn) | 184 to 186
CCCCCNc1nc2ccccc2n1C1CCN(C2(c3ccccc3)CCCCCC2)CC1 | 156 to 159
Cc1cccc(-c2nnnn2C)c1S(N)(=O)=O | 140 to 161
CC(C)(C)C1=C(C#N)C(c2cccc3nonc23)c2c[nH]nc2N1 (stereo not drawn) | 204
FC(F)(F)c1n[nH]cc1-c1nc(Nc2ccccn2)cs1 | 204 to 206
Nc1nc(C2CC2)nc(C(Cl)(Cl)Cl)n1 | 111 to 114
COc1ccccc1N1CCN(C(=O)Nc2nc(C)c(C)nc2OC)CC1 | 184 to 185

Compound | melting point [°C]
CCc1ccc(C#Cc2ccc(Br)cc2)cc1 | 117
Cc1ccc(C)n1-c1cc(F)cc(F)c1 | 55 to 56
O=C(CC1CCCCCC1)Nc1cn(CCO)c2cccc(Cl)c12 | 79 to 83
COc1ccccc1C(=O)N1CCN(C(=O)CN2CCC(O)(c3ccccc3)CC2)C(c2ccc(Cl)c(Cl)c2)C1 (racemic) | 112 to 114
CNC(=S)NCCCSc1ncc[nH]1 | 139 to 141
CCCCCCCCCCCCN(N)C(=O)NC | 73 to 75
COC(=O)Nc1cc(C)on1 | 136 to 137
Cc1ccc(S(=O)(=O)Nc2cc(C(=O)O)c3c(c2)C(C(=O)O)CC(c2ccccc2)N3)cc1 (stereo not drawn) | 235 to 237
O=C(NC1CCN(CC23CC(c4ccccc42)c2ccccc23)CC1)NC1CCCCO1 (stereo not drawn) | 211 to 212
COc1ccc(SCc2ccccc2)c(Cl)c1Cl | 116 to 117
O=C(O)c1ccc(C=Cc2ccccc2)cc1 | 252
CC1(C)CCCC2(C)C1CCC(C)(O)C2CCO (stereo not drawn) | 130 to 132
Cc1cccc(NC(=O)Nc2nnc(C(F)(F)F)s2)c1 | 255 to 257
CC(C)N1CCN(c2ccc(N)cc2)C(=O)C1 | 156 to 159
N#CCC(=O)N[C@H]1CC[C@H](CCN2CCN(c3nccc4c3CCO4)CC2)CC1 | 188
O=[N+]([O-])c1cc(C(F)(F)F)cc2sc(=S)sc12 | 163 to 165
NC(=O)[C@@H]1C[C@H](F)CN1C(=O)CCl | 95 to 96
O=C(OCc1ccccc1)c1cc(-c2ccc(-c3ccc(C(F)(F)F)cc3)o2)ccc1OCc1ccccc1 | 97 to 98
O=C(O)CCCCc1cc(O)c(O)c([N+](=O)[O-])c1 | 135 to 138
O=S(=O)(Nc1cc(F)ccc1F)c1ccccc1 | 115
O=C1NC(CCO)CO1 (stereo not drawn) | 90 to 91
O=C(CCC1(C(=O)O)CCCC1)OCc1ccc([N+](=O)[O-])cc1 | 78 to 80
CCn1c(C)cc(=O)nc1S | 190
COC(=O)C1=C(C)NC(C)=C(C(=O)OCC2CCCO2)C1c1cccc(Cl)c1Cl (stereo not drawn) | 172 to 173

Next, values leading:

melting point [°C] | Compound
109 | CCCN(c1nc(-c2ccc(OC)cc2Cl)c(C)s1)c1cc(C(=O)O)ccc1OC
126 to 127 | COCCNC(=O)c1cccc(-c2cccc3cc(C(O)c4cccc(C(F)(F)F)c4)sc23)c1 (stereo not drawn)
104 to 106 | Cc1cccc(S(=O)(=O)C2(CC#Cc3ccc(Cl)cc3)SC(=O)NC2=O)n1 (stereo not drawn)
244 to 263 | COc1cc(N(C)C)ccc1Nc1nc(Nc2ccc3c(c2)C(C)(C)CCC(=O)N3C)ncc1Cl
75.5 to 76.5 | CC(C)Oc1ccc(CCCO)c(OCc2ccc(Cl)cc2Cl)c1
217 to 219 | CC(=O)N1CCN(C(=O)Cn2c(-c3ccc(Cl)cc3)nc3cccnc32)CC1
124 | CCCCCc1cnc(-c2ccc(-c3ccc(C#N)cc3)cc2)nc1
218 to 220 | C[C@]1(CN2CCN(c3ccc(Cl)cc3)CC2)Cn2cc([N+](=O)[O-])nc2O1
122 | O=C(Nc1ccccc1OCC1CO1)c1cccc2[nH]ccc12 (stereo not drawn)
120 to 121 | CON=C(c1cc(C)on1)c1ccccc1COc1ncc(Cl)cc1C(F)(F)F
86 to 90 | COc1ccc(-c2nc(C)ccc2OC2SCC(O)C(O)C2O)cc1 (stereo not drawn)
90 to 93 | CCOC(=O)CCC(CCCCNS(=O)(=O)c1ccc(Cl)cc1)CCOc1cccnc1 (stereo not drawn)
99 | COc1cc(Cc2cnc(N)nc2N)cc(-c2ccc(C=O)cc2)c1OC
116 | CN(C1CCNCC1)S(=O)(=O)c1ccc(Nc2nccc(-c3ccc(F)cc3)n2)cc1
53 to 54 | Cn1nc(-c2c(F)cccc2Cl)nc1-c1cc(-c2cccc(C(F)(F)F)c2)sc1Cl
194 to 197 | Cc1ccc(-c2n[nH]cc2-c2ccnc(Cl)n2)cc1
115 to 117 | CC(=O)OCCc1cc2c(s1)SCCc1cc(=O)n(-c3ccc(Cl)cc3)nc1-2
161 to 162 | CC1=C(C(=O)c2ccc(Br)cc2)C(=O)C2C(O)=CC=CC2C1=O (stereo not drawn)
55 to 56 | CCOC(=O)c1c(C)nn(C)c1SCc1ccccc1
212 to 214 | CN(C)Cc1ccnc(OCCCNc2c(N)c(=O)c2=O)c1
275 | Cc1ccc(N2C(=O)C(O)=C(C(=O)c3ccc(C(C)C)cc3)C2c2ccc(OC3CCOCC3)cc2)nn1 (stereo not drawn)
177 to 178 | CCCN(CCC)C(=O)Cn1c(=O)[nH]c2cnc(-c3ccc(Cl)cc3)nc21
> 260 | COc1cccc(-n2c(=O)c3c(c4cccnc42)OCC3)c1
201 to 202 | CCCCCn1ncc2c(N)c(C(N)=O)cnc21
62 to 64 | CCOC(=O)c1cc2ccccc2n1C

melting point [°C] | Compound
207 to 209 | Cc1ccc(NC(=O)c2ccc3oc(-c4c(C)cc(OCC(=O)N(C)C)cc4C)nc3c2)cc1C
165 to 166 | N=C(NS(=O)(=O)c1ccc(Cl)cc1)C1CN(c2ccc(Cl)cc2)C(c2ccc(Cl)cc2Cl)=N1 (stereo not drawn)
176 to 180 | c1nc(Nc2ccc3[nH]ccc3c2)c2sc(-c3ccc(CNC4CC4)cc3)cc2n1
143 to 145 | O=C(O)Cc1cccc(-c2onc3ccccc23)c1
159 to 161 | Clc1cccc(N2CCN(CCCOc3ccc4cn[nH]c4c3)CC2)c1Cl
160 | CCCCCCN1CCN(Cc2ccc(NC(=S)Nc3ccccc3N)cc2)C(=O)C1=O
85 to 90 | CCOC(=O)CN(Cc1cc(F)ccc1F)S(=O)(=O)c1ccc(N2CCC(NC[C@H](O)c3ccc(O)c(NS(C)(=O)=O)c3)CC2)cc1
181 to 184 | NS(=O)(=O)c1ccc(NC(=O)NCCCCCCNC(=O)n2cc(F)c(=O)[nH]c2=O)cc1
> 230 | CC(=O)Nc1ccc(C23CC2C(=O)NC3=O)cc1 (stereo not drawn)
246 | COCCN1Cc2c(cnc3c(NC(=O)c4c(Cl)cccc4Cl)cccc23)C1=O
161 to 163 | C[C@H](N)C(=O)N(C(=O)OCc1ccccc1)c1ccccc1
208 to 209 | CCOC(=O)Cn1c(=O)n(S(=O)(=O)c2ccc(Cl)cc2)c(=O)c2ccccc21
204 to 206 | COc1cc(Nc2nccc(-c3cccnc3)n2)ccc1-n1cnc(C)c1
219 to 220 | Cn1c2cc(Cl)ccc2c2c(CO)nn(-c3ccccc3)c(=O)c21
244 to 246 | Oc1cc2c(cc1-c1nc3cc(Cl)ccc3o1)oc1ccccc12
106 to 109 | COC(=O)CCc1cc2cc(Cl)ccc2n1S(=O)(=O)c1cccc(OC)c1
188 | Cc1cc(Nc2ccnc(Nc3ccc(S(=O)(=O)N(C)C4CCCN(C)C4)cc3)n2)ccc1F (stereo not drawn)
212 | Cc1cc(C)c2nc(NC3CCN(CCC(N)=O)CC3)n(Cc3nc(C)ccc3O)c2c1
143 to 144 | CCN(CC)C(=O)COC(=O)c1cccc(NC(=O)C(CSC(C)=O)Cc2ccccc2)c1 (stereo not drawn)
125 | CC(C)(C)OC(=O)n1c(-c2ccc3c(c2)C(C)(C)OC(=O)N3)ccc1[N+](=O)[O-]
89 to 91 | CCOC(=O)C(C1c2ccccc2Oc2ccccc21)[N+](=O)[O-] (stereo not drawn)
265 to 268 | O=C(Nc1ccc(Cl)cn1)c1cn2nc(N3CCN(C(=O)c4ccccc4C(F)(F)F)CC3)ccc2n1
134 to 136 | CC(C)n1nc(-c2sc(NC(=O)c3ccc(CNCCN4CCCCC4)cc3)nc2-c2ccccc2)ccc1=O
226 to 229 | CN1CCN(C(=O)c2ccc(-n3nc(-c4ccccc4O)nc3-c3ccccc3O)cc2)CC1
